target: MAGE-A11:PCF11 (Homo sapiens (Human), UniProt P43364); experiment: TR-FRET single point screening at 15 μM; format: binding; set-up: unit not given here; settings: single point TR-FRET screening at 15 μM against MAGE-A11:PCF11
How it was run: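 Single-point screen at 15 μM (0.25% DMSO) measuring disruption of GST-MAGEA11 (5 nM) binding to FAM-PCF11_4 peptide (200 nM) detected by Tb-anti-GST (5 nM). Buffer 50 mM Tris pH 7.5, 20 mM MgCl2, 0.1 mg/ml BSA, 1 mM DTT; 90 min at ~25 °C; 520/490 nm ratio converted to % inhibition versus controls.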

Sequence of MAGE-A11:PCF11 (P43364 218-429): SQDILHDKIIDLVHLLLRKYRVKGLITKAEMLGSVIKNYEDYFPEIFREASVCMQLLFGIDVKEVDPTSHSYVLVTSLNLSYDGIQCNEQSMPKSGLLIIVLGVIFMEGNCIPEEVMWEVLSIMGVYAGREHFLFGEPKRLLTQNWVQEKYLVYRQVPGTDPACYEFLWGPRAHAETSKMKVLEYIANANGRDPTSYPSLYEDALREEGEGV

| SMILES | TR-FRET signal |
| --- | --- |
| CCCN(CCC)CCCNc1c2ccc(Cl)cc2nc2ccc(OC)cc12 [SJ000520917] | −288.2 |
| COc1ccc2nc3cc(Cl)ccc3c(NCCCNCCC(C)c3ccccc3)c2c1 (stereo not drawn) [SJ000523027] | −340.3 |
| CCCN(CCCNc1c2ccc(Cl)cc2nc2ccc(OC)cc12)Cc1cccc2c1OCO2 [SJ000522979] | −108 |
| C#CCOCC(O)CN1CCN(c2cc(C)nc3ccccc23)CC1 (stereo not drawn) [SJ000227655] | 6.55 |
| CCCN(CCCNc1c2ccc(Cl)cc2nc2ccc(OC)cc12)Cc1cccc(C#N)c1 [SJ000522739] | −94.54 |
| Fc1ccc(CN(CCCCNc2ccnc3cc(Cl)ccc23)Cc2ccccc2)cc1 [SJ000522725] | 30.2 |
| CCOC(=O)c1cnc2ccc(C(=O)OC)cc2c1NCCN1CCOCC1 [SJ000127079] | −7.813 |
| Clc1ccc2c(NCCCCN(Cc3ccccc3)CC3CCCCC3)ccnc2c1 [SJ000361194] | 41.93 |
| COc1cc2ncc(S(=O)(=O)c3ccc(C)cc3)c(N3CCN(C)CC3)c2cc1OC [SJ000083951] | 1.313 |
| Oc1c(F)cc(F)cc1CN(CCCCNc1ccnc2cc(Cl)ccc12)Cc1ccccc1 [SJ000357506] | 30.65 |
| CCOc1ccc2ncc(S(=O)(=O)c3ccc(Cl)cc3)c(N3CCN(c4ccccc4)CC3)c2c1 [SJ000117054] | −446.9 |
| CCc1ccc(S(=O)(=O)c2cnc3ccccc3c2N2CCN(Cc3ccccc3)CC2)cc1 [SJ000117086] | −55.26 |
| COc1ccc2nc3cc(Cl)ccc3c(NCCCNCc3cn(C)c4ccccc34)c2c1 [SJ000520987] | −252.4 |
| CCOc1ccc2ncc(S(=O)(=O)c3ccccc3)c(N3CCN(CC)CC3)c2c1 [SJ000083959] | 4.534 |
| COc1ccccc1CN1CCC(Nc2ccnc3cc(Cl)ccc23)CC1 [SJ000523097] | 8.596 |
| Cc1ccc(S(=O)(=O)c2cnc3ccc(F)cc3c2N2CCN(c3ccc(F)cc3)CC2)cc1 [SJ000117061] | −70.5 |
| COc1ccc2nc3cc(Cl)ccc3c(NCCCNCc3nccs3)c2c1 [SJ000520989] | −355.2 |
| COc1ccc(CN2CCC(Nc3ccnc4cc(Cl)ccc34)CC2)cc1 [SJ000523090] | 23.72 |
| FC(F)(F)Oc1ccccc1CN(CCCCNc1ccnc2cc(Cl)ccc12)Cc1ccccc1 [SJ000520459] | 30.86 |
| CCOC(=O)c1cnc2c(ccc3ccccc32)c1NCCN(C)C [SJ000019487] | 6.418 |
| O=[N+]([O-])c1ccccc1CN1CCC(Nc2ccnc3cc(Cl)ccc23)CC1 [SJ000523094] | −2.026 |
| CCCN(CCCNc1c2ccc(Cl)cc2nc2ccc(OC)cc12)Cc1ccc(CC)cc1 [SJ000522972] | −105.1 |
| O=C(CN1CCN(C(c2ccccc2)c2ccccc2)CC1)Nc1c2c(nc3ccccc13)CCC2 [SJ000111684] | 11.85 |
| Clc1ccc2c(NC3CCN(Cc4ccc5c(c4)OCO5)CC3)ccnc2c1 [SJ000523087] | 7.643 |
| CCCCN(CCCCNc1ccnc2cc(Cl)ccc12)Cc1ccccc1 [SJ000357538] | 27.64 |
| COc1ccc2nc3cc(Cl)ccc3c(NCCCNCc3ccc(C)o3)c2c1 [SJ000361089] | −229 |
| Cc1cccc(N2CCN(c3c(S(=O)(=O)c4ccccc4)cnc4ccccc34)CC2)c1C [SJ000117081] | −13.13 |
| O=S(=O)(c1ccc(F)cc1)c1cnc2ccc(Cl)cc2c1N1CCN(c2ccc(F)cc2)CC1 [SJ000117063] | −4.205 |
| CCOC(=O)c1cnc2ccc(OCC)cc2c1NCCN(C)C [SJ000027288] | 10.66 |

same assay, conditions: single point TR-FRET screening of quinoline compounds against MAGE-A11:PCF11; 15 μM

| SMILES | TR-FRET signal |
| --- | --- |
| Clc1ccc2c(NCCCN(Cc3ccccc3)Cc3ccccc3)ccnc2c1 [SJ000361166] | 14.76 |
| Cc1c(CNCCCNc2ccnc3cc(Cl)ccc23)c(=O)n(-c2ccccc2)n1C [SJ000523058] | 5.584 |
| Clc1ccc2c(NCCCN(Cc3ccccc3)CC3CCCCC3)ccnc2c1 [SJ000361171] | 28.21 |
| CCCN(CCCNc1ccnc2cc(C(F)(F)F)ccc12)Cc1c[nH]c2ccccc12 [SJ000520468] | 16.16 |
| CCc1ccc(CN(CCCNc2ccnc3cc(Cl)ccc23)Cc2ccccc2)cc1 [SJ000520442] | 18.89 |
| CCOC(=O)c1cnc2c(OC)cccc2c1NCCCN1CCOCC1 [SJ000180455] | 3.635 |
| CCOC(=O)c1cnc2c(C)c(Cl)ccc2c1NCCCN1CCOCC1 [SJ000129912] | −23.26 |
| CCCN(CCCNc1c2ccc(Cl)cc2nc2ccc(OC)cc12)Cc1cc(F)ccc1OC [SJ000520931] | 1.847 |
| CCCCCCN(CCC)CCCNc1ccnc2cc(Cl)ccc12 [SJ000523048] | 1.317 |
| CCCN(CCCNc1ccnc2cc(C(F)(F)F)ccc12)CCCc1ccccc1 [SJ000523080] | 28 |
| CCOC(=O)c1cnc2c(C)cc(C)cc2c1NCCCN(C)C [SJ000037397] | 14.93 |
| CCCN(CCCNc1ccnc2cc(Cl)ccc12)Cc1ccncc1 [SJ000357449] | 9.295 |
| Cc1ccc(C)c(CN(CCCNc2ccnc3cc(Cl)ccc23)Cc2ccccc2)c1 [SJ000361187] | 20.22 |
| Clc1ccc2c(NCCCNCc3cc(Br)cs3)ccnc2c1 [SJ000521028] | 22.11 |
| CCCN(CCCNc1ccnc2cc(Cl)ccc12)Cc1ccc(C(=O)OC)cc1 [SJ000523042] | 16.72 |
| CCCN(CCCNc1c2ccc(Cl)cc2nc2ccc(OC)cc12)Cc1ccc([N+](=O)[O-])cc1 [SJ000520949] | −9.039 |

| SMILES | TR-FRET signal |
| --- | --- |
| FC(F)(F)c1ccc2c(NCCCNCC3CC3)ccnc2c1 [SJ000361108] | 22.81 |
| COc1cccc(Oc2ccc3c(NCCCNCc4ccco4)ccnc3c2)c1 [SJ000311214] | 29.11 |
| CCCN(CCCNc1c2ccc(Cl)cc2nc2ccc(OC)cc12)Cc1cc(Br)cs1 [SJ000522989] | −56.7 |
| CCCN(CCCNc1ccnc2cc(C(F)(F)F)ccc12)Cc1cc(F)ccc1OC [SJ000520475] | 15.75 |
| CCCN(CCCNc1ccnc2cc(Cl)ccc12)Cc1ccc(Cl)cc1Cl [SJ000523043] | 12.1 |
| CC(C)(C)CCN(CCCNc1ccnc2cc(Cl)ccc12)Cc1ccccc1 [SJ000357578] | 25.69 |
| C#Cc1ccccc1CN(CCC)CCCNc1ccnc2cc(Cl)ccc12 [SJ000523000] | 12.45 |
| CCCN(CCCNc1ccnc2cc(Cl)ccc12)Cc1ccsc1 [SJ000522744] | 7.824 |
| CCCN(CCCNc1c2ccc(Cl)cc2nc2ccc(OC)cc12)Cc1c(C)cc(C)cc1C [SJ000520934] | −46.32 |
| CC(C)(C)CCNCCCNc1ccnc2cc(Cl)ccc12 [SJ000521026] | 9.225 |
| CCC(C)CNCCCNc1ccnc2cc(Cl)ccc12 (stereo not drawn) [SJ000361104] | 9.822 |
| CCCN(CCCNc1c2ccc(Cl)cc2nc2ccc(OC)cc12)Cc1ccccc1OC(F)(F)F [SJ000522961] | 22.69 |
| CCCN(CCCNc1ccnc2cc(C(F)(F)F)ccc12)Cc1cn(C)c2ccccc12 [SJ000520469] | 25.54 |
| CCCN(CCCNc1ccnc2cc(Cl)ccc12)CCc1ccccc1 [SJ000357574] | 4.884 |
| CCOC(=O)c1cnc2ccc(Br)cc2c1NCCCN1CCOCC1 [SJ000176507] | −22 |

From patent US20240246941A1, “SUBSTITUTED 4-(3-AMINOPROP-1-YL)AMINOQUINOLINE ANALOGS AS MODULATORS OF MELANOMA-ASSOCIATED ANTIGEN 11 UBIQUITIN LIGASE” (ST. JUDE CHILDREN'S RESEARCH HOSPITAL, INC., priority 2020, published 2024)
